# Measurements taken from ChEMBL document CHEMBL1130948, “Synthesis of sialyl Lewis X mimetics using the Ugi four-component reaction” (Bioorg Med Chem Lett, 1998).
# Several values for one entry are separate records, joined by “and”; a condition that tells them apart may be missing. Equal values may be shown once. Activity calls are given as the source filed them. The calls are words filed in the database; no cut-off is given here.
# What was measured:
# [1] = molecular target: T1, E-selectin (Homo sapiens) (UniProt P16581); test: Inhibitory activity against E-selectin was tested in a cell-free SLe-polymer/Selectin E assay, at 3 mM concentration.
# T1 sequence (whole entry): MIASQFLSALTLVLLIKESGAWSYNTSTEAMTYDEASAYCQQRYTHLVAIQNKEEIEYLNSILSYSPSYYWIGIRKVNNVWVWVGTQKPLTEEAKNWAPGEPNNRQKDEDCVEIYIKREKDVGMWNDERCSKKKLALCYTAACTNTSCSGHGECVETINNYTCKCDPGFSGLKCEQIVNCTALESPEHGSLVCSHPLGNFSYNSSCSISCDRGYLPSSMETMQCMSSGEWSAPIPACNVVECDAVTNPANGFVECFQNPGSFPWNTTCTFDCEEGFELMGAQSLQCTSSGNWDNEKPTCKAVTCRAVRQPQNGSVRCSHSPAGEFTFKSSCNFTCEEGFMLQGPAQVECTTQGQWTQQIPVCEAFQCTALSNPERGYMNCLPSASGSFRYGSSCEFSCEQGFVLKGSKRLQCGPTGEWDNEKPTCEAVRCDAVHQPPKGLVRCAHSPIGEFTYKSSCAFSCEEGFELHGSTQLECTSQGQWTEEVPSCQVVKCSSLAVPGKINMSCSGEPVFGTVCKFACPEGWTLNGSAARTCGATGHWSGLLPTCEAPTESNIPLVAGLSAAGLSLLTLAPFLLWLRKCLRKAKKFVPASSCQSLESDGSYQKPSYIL
# [2] = molecular target: T2, E-selectin (Homo sapiens, UniProt P16581); test: Compound was tested in a cell-free SLe-polyacrylamide glycoconjugate binding assay (assay A) in Selectin E
# T2 sequence (P16581 whole entry): T1 sequence (whole entry)
# [3] = molecular target: T2, E-selectin; test: Compound was tested in a cell-free SLe-polyacrylamide glycoconjugate binding assay (assay B) in Selectin E
# [4] = molecular target: T3, P-selectin (Homo sapiens, UniProt P16109); test: Compound was tested in a cell-free SLe-polyacrylamide glycoconjugate binding assay (assay B) in P-selectin
# T3 sequence (P16109 whole entry): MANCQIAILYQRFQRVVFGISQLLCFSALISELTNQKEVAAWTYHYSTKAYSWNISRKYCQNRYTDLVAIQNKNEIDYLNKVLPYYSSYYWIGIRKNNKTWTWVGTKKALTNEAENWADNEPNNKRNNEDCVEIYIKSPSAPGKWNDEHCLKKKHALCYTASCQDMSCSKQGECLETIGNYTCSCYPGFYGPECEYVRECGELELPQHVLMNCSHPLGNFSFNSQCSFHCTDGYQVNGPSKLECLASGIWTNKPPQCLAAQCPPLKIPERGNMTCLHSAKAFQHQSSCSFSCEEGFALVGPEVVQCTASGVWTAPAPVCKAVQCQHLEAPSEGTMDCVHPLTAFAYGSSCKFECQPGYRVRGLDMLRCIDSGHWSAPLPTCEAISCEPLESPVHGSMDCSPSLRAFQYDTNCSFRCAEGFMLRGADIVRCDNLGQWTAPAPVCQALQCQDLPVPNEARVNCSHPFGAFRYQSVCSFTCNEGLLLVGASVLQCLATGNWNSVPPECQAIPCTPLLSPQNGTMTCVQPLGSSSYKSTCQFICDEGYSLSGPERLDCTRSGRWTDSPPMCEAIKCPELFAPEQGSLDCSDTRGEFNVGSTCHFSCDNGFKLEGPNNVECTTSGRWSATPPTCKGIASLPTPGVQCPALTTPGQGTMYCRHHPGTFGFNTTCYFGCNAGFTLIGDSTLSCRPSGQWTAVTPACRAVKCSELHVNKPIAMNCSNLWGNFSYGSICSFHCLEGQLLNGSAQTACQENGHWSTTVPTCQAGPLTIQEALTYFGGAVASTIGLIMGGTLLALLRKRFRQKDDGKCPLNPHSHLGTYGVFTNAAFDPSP
# [5] = molecular target: T3, P-selectin; test: Compound was tested in a cell-free SLe-polyacrylamide glycoconjugate binding assay (assay A) in P-selectin; value ranges from 1-3
# [6] = molecular target: T3, P-selectin; test: Tested in a cell-free SLe-polyacrylamide glycoconjugate binding assay (assay A) in P-selectin
# [7] = molecular target: T3, P-selectin; test: Tested in a cell-free SLe-polyacrylamide glycoconjugate binding assay (assay A) in P-selectin; inactive
# [8] = molecular target: T1, E-selectin (Homo sapiens); test: Compound was tested in a cell-free SLe-polymer/Selectin E assay, at 3 mM concentration.
# [9] = molecular target: T1, E-selectin (Homo sapiens); test: Inhibitory activity against E-selectin was tested in a cell-free SLe-polymer/Selectin E assay, at 3 mM concentration; […].
# [10] = molecular target: T3, P-selectin; test: Compound was tested in a cell-free SLe-polyacrylamide glycoconjugate binding assay (assay B) in P-selectin; value ranges from 1.3-2
# [11] = molecular target: T1, E-selectin (Homo sapiens); test: (§1) Compound was tested in a cell-free SLe-polyacrylamide glycoconjugate binding assay (assay A) in Selectin E at 3 mM
# [12] = molecular target: T1, E-selectin (Homo sapiens); test: as §1; remark: listed apart in the source
# [13] = molecular target: T4, P-selectin (Homo sapiens) (UniProt P16109); details: 1 mM
# T4 sequence (whole entry): T3 sequence (P16109 whole entry)
# Description: Compound was tested in a cell-free SLe-polyacrylamide glycoconjugate binding assay (assay A) in P-selectin at 1 mM
# [14] = molecular target: T1, E-selectin (Homo sapiens); test: Inhibitory activity against E-selectin was tested in a cell-free SLe-polymer/Selectin E assay, at 3 mM concentration; […]
# [15] = molecular target: T2, E-selectin; test: Compound was tested in a cell-free SLe-polyacrylamide glycoconjugate binding assay (assay A) in Selectin E; inactive
SMILES,IC50 [2],IC50 [3],IC50 [4],also measured
O=C(O)CNC(=O)C(CC1OC(CO)C(O)C(O)C1O)N(CC(=O)O)C(=O)c1ccccc1 (stereo not drawn),–,–,–,inhibition [1]: 38%
CCCCCCCCCCCCCC(=O)N(CC(=O)O)C(CC1OC(CO)C(O)C(O)C1O)C(=O)NCC(=O)O (stereo not drawn),–,–,–,inhibition [1]: 32%
COC(=O)CNC(=O)C(C)N(C(=O)CC1OC(CO)C(O)C(O)C1O)C(CCC(=O)O)C(=O)O (stereo not drawn),360 µM and 1000 µM,> 10000 µM,–,–
CC(C(=O)NC(C)(C)C)N(C(=O)CC1OC(COc2ccccc2)C(O)C(O)C1O)C(CCC(=O)O)C(=O)O (stereo not drawn),> 3000 µM,> 2500 µM,87 µM and 136 µM,–
COC(=O)CNC(=O)C(C)N(C(=O)CC1OC(COCCCc2ccc(Oc3ccc(Oc4ccccc4)cc3)cc2)C(O)C(O)C1O)C(CCC(=O)O)C(=O)O (stereo not drawn),420 µM and 600 µM,3420 µM and 3620 µM,127 µM and 32 µM,IC50 [5]: 1000 µM
CC(C(=O)NCCc1ccccc1)N(C(=O)CC1OC(COc2ccccc2)C(O)C(O)C1O)C(CCC(=O)O)C(=O)O (stereo not drawn),> 3000 µM,> 2500 µM,311 µM and 85 µM,–
O=C(O)CNC(=O)C(CC1OC(CO)C(O)C(O)C1O)N(CC(=O)O)C(=O)c1cccc2c1Cc1ccccc1-2 (stereo not drawn),–,–,–,inhibition [1]: 48%
O=C(O)CNC(=O)C(CC1OC(CO)C(O)C(O)C1O)N(CC(=O)O)C(=O)Cc1cccc2ccccc12 (stereo not drawn),–,–,–,inhibition [1]: 42%
CCOCCOCCOCCOCCCCOCC1OC(CC(=O)N(C(C)C(=O)NCC(=O)OC)C(CCC(=O)O)C(=O)O)C(O)C(O)C1O (stereo not drawn),500 µM and 300 µM,> 10000 µM,5 µM and 1 µM,IC50 [6]: > 3000 µM
COC(=O)CNC(=O)C(CCC(=O)O)N(C(=O)CC1OC(CO)C(O)C(O)C1O)C(CCC(=O)O)C(=O)O (stereo not drawn),3000 µM,> 4000 µM,28 µM,IC50 [7]: Not Active
CC(=O)N(CC(=O)O)C(CC1OC(CO)C(O)C(O)C1O)C(=O)NCC(=O)O (stereo not drawn),–,–,–,inhibition [8]: 28%
O=C(O)CNC(=O)C(CC1OC(CO)C(O)C(O)C1O)N(CC(=O)O)C(=O)c1ccc(-c2ccccc2)cc1 (stereo not drawn),–,–,–,inhibition [9]: inactive
CC(=O)N[C@H]1[C@H]([C@H](O)[C@H](O)CO)O[C@@](O[C@H]2[C@@H](O)[C@@H](CO)O[C@@H](O[C@@H]([C@H](O[C@@H]3O[C@@H](C)[C@@H](O)[C@@H](O)[C@@H]3O)[C@H](C=O)NC(C)=O)[C@H](O)CO)[C@@H]2O)(C(=O)O)C[C@@H]1O [SIALYL LEWIS X],480 µM,1090 µM,–,IC50 [6]: > 3000 µM; IC50 [10]: 1300 µM
CC1OC(CC(=O)N(CC(=O)NC(CCC(=O)O)C(=O)O)C(CCc2ccc(Oc3ccc(Oc4ccccc4)cc3)cc2)C(=O)NCCc2ccccc2)C(O)C(O)C1O (stereo not drawn),950 µM,> 2500 µM,76 µM,–
O=C(O)CCC(=O)N(C(CCC(=O)O)C(=O)O)C(CC1OC(CO)C(O)C(O)C1O)C(=O)NCC(=O)O (stereo not drawn),–,> 4000 µM,18 µM and 25 µM,inhibition [11]: 45%; inhibition [12]: 45%; IC50 [7]: Not Active; inhibition [13]: 29%
CC1OC(CC(C(=O)NCCc2ccccc2)N(CC(=O)NC(CCC(=O)O)C(=O)O)C(=O)CCc2ccc(Oc3ccc(Oc4ccccc4)cc3)cc2)C(O)C(O)C1O (stereo not drawn),530 µM,> 4000 µM,28 µM,IC50 [6]: 283 µM
O=C(O)CNC(=O)C(CC1OC(CO)C(O)C(O)C1O)N(CC(=O)O)C(=O)CC1c2ccccc2-c2ccccc21 (stereo not drawn),–,–,–,inhibition [9]: inactive
C/C=C/C=C/C(=O)N(CC(=O)O)C(CC1OC(CO)C(O)C(O)C1O)C(=O)NCC(=O)O (stereo not drawn),–,–,–,inhibition [14]: inactive
O=C(O)CNC(=O)C(CC1OC(CO)C(O)C(O)C1O)N(CC(=O)O)C(=O)Cc1ccc2ccccc2c1 (stereo not drawn),–,–,–,inhibition [1]: 51%
O=C(O)CCC(NC(=O)CC1OC(COCCCc2ccc(Oc3ccc(Oc4ccccc4)cc3)cc2)C(O)C(O)C1O)C(=O)O (stereo not drawn),350 µM,> 10000 µM,4 µM,IC50 [6]: 34 µM
CCCCCC(=O)N(CC(=O)O)C(CC1OC(CO)C(O)C(O)C1O)C(=O)NCC(=O)O (stereo not drawn),–,–,–,inhibition [8]: 52%
COC(=O)CNC(=O)C(C)N(C(=O)CC1OC(COc2ccccc2)C(O)C(O)C1O)C(CCC(=O)O)C(=O)O (stereo not drawn),3400 µM and 2800 µM,> 2500 µM,41 µM and 43 µM,–
CCOCCOCCOCCOCCCCOCC1OC(CC(=O)NC(CCC(=O)O)C(=O)O)C(O)C(O)C1O (stereo not drawn),–,> 10000 µM,20 µM,IC50 [15]: Not Active; IC50 [6]: > 3000 µM
COC(=O)CNC(=O)C(CC1OC(C)C(O)C(O)C1O)N(Cc1ccccc1)C(=O)C(NC(=O)CCC(=O)O)C(O)CO (stereo not drawn),840 µM,–,–,–
O=C(O)CCC(C(=O)O)N(C(=O)CC1OC(CO)C(O)C(O)C1O)C(CCC(=O)O)C(=O)NCC(=O)O (stereo not drawn),3000 µM,> 4000 µM,15 µM,IC50 [7]: Not Active
COC(=O)CCC(=O)N(C(CCC(=O)O)C(=O)O)C(CC1OC(CO)C(O)C(O)C1O)C(=O)NCC(=O)OC (stereo not drawn),3000 µM and > 3000 µM,> 4000 µM,39 µM and 142 µM,IC50 [7]: Not Active
O=C(O)CNC(=O)C(CC1OC(CO)C(O)C(O)C1O)N(CC(=O)O)C(=O)C(F)(F)F (stereo not drawn),–,–,–,inhibition [8]: 42%
